Three compounds from US10717716B2, “1,3,4-oxadiazole derivative compounds as histone deacetylase 6 inhibitor, and the pharmaceutical composition comprising the same” (Chong Kun Dang Pharmaceutical Corp., priority 2015, dated 2020) can be followed below.

Assay [1] has as its target T1, human recombinant HDAC1 (Homo sapiens, UniProt Q13547).
T1 construct: purchased Enzo Life Science BML-SE456
The assay is described as follows: HDAC1 enzyme activity inhibition assay (HDAC Fluorimetric Drug Discovery Kit). The class given is biochemical. As to conditions: human recombinant HDAC1, Fluor de Lys substrate, 30° C. 60 minutes. In outline:
(§1)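 Fluorimetric deacetylase assay: 5-fold serial compound dilutions, 0.3 μg recombinant human enzyme (HDAC1 or HDAC6, same protocol), 10 μM Fluor de Lys-SIRT1 substrate, 60 min at 30 °C. Signal developed 30 min, measured at 360/460 nm; IC50 values derived.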

In assay [2] the target is T2, human recombinant HDAC6 (Homo sapiens, UniProt Q9UBN7).
T2 construct: purchased Calbiochem 382180
T2 sequence (Q9UBN7 1-1215): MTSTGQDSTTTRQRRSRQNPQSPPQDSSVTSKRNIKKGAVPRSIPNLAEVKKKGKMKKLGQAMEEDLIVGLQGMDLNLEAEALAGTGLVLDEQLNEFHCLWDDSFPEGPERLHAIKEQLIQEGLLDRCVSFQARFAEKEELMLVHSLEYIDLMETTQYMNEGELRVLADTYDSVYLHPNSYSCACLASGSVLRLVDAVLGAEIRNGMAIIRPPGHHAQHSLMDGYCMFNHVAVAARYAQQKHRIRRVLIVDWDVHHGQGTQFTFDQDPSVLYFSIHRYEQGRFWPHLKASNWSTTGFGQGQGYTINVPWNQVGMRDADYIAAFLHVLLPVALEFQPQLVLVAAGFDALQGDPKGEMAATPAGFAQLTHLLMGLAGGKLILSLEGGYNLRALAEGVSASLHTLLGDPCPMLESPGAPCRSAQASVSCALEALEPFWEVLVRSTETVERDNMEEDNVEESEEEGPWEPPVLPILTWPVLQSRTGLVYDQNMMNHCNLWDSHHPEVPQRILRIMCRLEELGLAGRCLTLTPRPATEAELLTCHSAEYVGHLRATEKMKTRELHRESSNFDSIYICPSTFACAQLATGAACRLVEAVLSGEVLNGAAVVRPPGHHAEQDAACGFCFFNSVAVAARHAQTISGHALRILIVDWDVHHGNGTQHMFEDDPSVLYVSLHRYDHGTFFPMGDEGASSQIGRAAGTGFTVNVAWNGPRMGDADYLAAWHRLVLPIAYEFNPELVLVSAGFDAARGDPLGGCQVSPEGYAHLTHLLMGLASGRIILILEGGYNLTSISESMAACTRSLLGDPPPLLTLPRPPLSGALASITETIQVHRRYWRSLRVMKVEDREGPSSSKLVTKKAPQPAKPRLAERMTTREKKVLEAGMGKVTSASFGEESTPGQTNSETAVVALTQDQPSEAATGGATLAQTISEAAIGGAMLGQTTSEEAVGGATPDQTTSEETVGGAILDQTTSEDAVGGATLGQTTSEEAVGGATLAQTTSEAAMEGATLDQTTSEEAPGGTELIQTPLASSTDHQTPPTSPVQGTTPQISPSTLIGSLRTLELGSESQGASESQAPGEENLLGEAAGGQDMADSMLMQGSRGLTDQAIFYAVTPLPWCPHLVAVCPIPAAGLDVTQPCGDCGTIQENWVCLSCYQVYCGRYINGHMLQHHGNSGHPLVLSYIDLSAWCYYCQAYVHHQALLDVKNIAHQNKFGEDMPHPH
The assay can be described thus: HDAC6 enzyme activity inhibition assay (HDAC Fluorimetric Drug Discovery Kit). Conditions: for HDAC6 selectivity (fold): HDAC6 over HDAC1; for IC50: human recombinant HDAC6, same protocol as HDAC1, read-out: HDAC6. The class given is biochemical. The procedure, abridged: as §1

T1 sequence (Q13547 whole entry): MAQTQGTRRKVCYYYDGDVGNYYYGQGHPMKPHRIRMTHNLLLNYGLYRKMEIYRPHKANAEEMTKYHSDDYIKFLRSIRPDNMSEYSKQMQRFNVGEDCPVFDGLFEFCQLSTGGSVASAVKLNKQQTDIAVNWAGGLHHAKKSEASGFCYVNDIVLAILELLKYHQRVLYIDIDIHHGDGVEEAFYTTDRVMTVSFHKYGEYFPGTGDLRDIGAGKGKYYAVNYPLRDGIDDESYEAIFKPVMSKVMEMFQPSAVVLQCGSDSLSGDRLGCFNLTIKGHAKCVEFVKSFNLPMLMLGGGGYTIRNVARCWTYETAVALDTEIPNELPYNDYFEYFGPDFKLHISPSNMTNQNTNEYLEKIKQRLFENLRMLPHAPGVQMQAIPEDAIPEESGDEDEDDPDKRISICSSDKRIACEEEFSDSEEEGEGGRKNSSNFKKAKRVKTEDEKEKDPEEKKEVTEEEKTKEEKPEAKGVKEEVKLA

Consider `COc1cccc(N(Cc2ccc(-c3nnc(C(F)F)o3)cc2F)C(=O)N2CCN(C3COC3)CC2)c1` [Compound 21949, N-(4-(5-(Difluoromethyl)-1,3,4-oxadiazol-2-yl)-2-fluorobenzyl)-N-(3-methoxyphenyl)-4-(oxetan-3-yl)piperazine-1-carboxamide], for which the IC50 in assay [1] was found to be 48.3 µM. For the same compound, in assay [2], the “HDAC6 selectivity (fold)” value was found to be 383 fold and the IC50 is 0.126 µM.
Regarding `O=C(N1CCN(C2COC2)CC1)N(Cc1ccc(-c2nnc(C(F)F)o2)cc1)c1ccccc1` [Compound 21954, N-(4-(5-(Difluoromethyl)-1,3,4-oxadiazol-2-yl)benzyl)-4-(oxetan-3-yl)-N-phenylpiperazine-1-carboxamide], the results for the IC50 in assay [1] and in assay [2] were 35.7 µM and 0.145 µM, respectively. For the same compound, the “HDAC6 selectivity (fold)” value in assay [2] turned out to be 245 fold.
Turning to `O=C(NCCN1CCS(=O)(=O)CC1)N(Cc1ccc(-c2nnc(C(F)F)o2)cc1F)c1ccccc1` [Compound 21985, 1-(4-(5-(Difluoromethyl)-1,3,4-oxadiazol-2-yl)-2-fluorobenzyl)-3-(2-(1,1-dioxidothiomorpholino)ethyl)-1-phenylurea], the IC50 in assay [1] is 21.4 µM; in assay [2], 0.045 µM. Further, the “HDAC6 selectivity (fold)” value in assay [2] stood at 480 fold.
